Assays:
Assay in all cases: relative viability (nuclei count vs DMSO), 5 days (fraction); higher = more cells survive
ABC-1 = test system: ABC-1
Summary of the method: (§1)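 After 5 days of treatment, lung cancer cells in 1536-well plates were fixed and stained in a single step (final 0.05% Triton X-100, 1% formaldehyde, 1 ug/ml Hoechst) and their nuclei counted on 4× images. Treatment had been applied by pin tool the day after seeding as one drug alone or as a fixed anchor-drug dose with five library-drug doses (not always all listed) in √10 steps. Relative viability is the nuclei count of treated wells divided by that of vehicle wells, and values are medians of duplicate plates.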

COR-L 105 = test system: COR-L 105
Summary of the method: as §1

NCI-H3122 = test system: NCI-H3122
Summary of the method: as §1

NCI-H1666 = test system: NCI-H1666
Summary of the method: as §1

NCI-H727 = test system: NCI-H727
Summary of the method: as §1

NCI-H2170 = test system: NCI-H2170
Summary of the method: as §1

PC-14 = test system: PC-14
Summary of the method: as §1

NCI-H460 = test system: NCI-H460
Summary of the method: as §1

LK-2 = test system: LK-2
Summary of the method: as §1

LOU-NH91 = test system: LOU-NH91
Summary of the method: as §1

NCI-H1650 = test system: NCI-H1650
Summary of the method: as §1

NCI-H1437 = test system: NCI-H1437
Summary of the method: as §1

CAL-12T = test system: CAL-12T
Summary of the method: as §1

201T = test system: 201T
Summary of the method: as §1

NCI-H661 = test system: NCI-H661
Summary of the method: as §1

BEN = test system: BEN
Summary of the method: as §1

EKVX = test system: EKVX
Summary of the method: as §1

HARA = test system: HARA
Summary of the method: as §1

NCI-H2009 = test system: NCI-H2009
Summary of the method: as §1

NCI-H441 = test system: NCI-H441
Summary of the method: as §1

HCC-366 = test system: HCC-366
Summary of the method: as §1

For CCN(CC)CCCCNc1ncc2cc(-c3cc(OC)cc(OC)c3)c(NC(=O)NC(C)(C)C)nc2n1 + CS(=O)(=O)N1CCN(Cc2cc3nc(-c4cccc5[nH]ncc45)nc(N4CCOCC4)c3s2)CC1 [Pictilisib] (partner 1 µM), the relative viability (ABC-1; first compound 0.01 µM) was 0.686, the relative viability (ABC-1; first compound 0.03162 µM) was 0.66 and the relative viability (ABC-1; first compound 0.1 µM) was 0.736. For the same compound, the relative viability (ABC-1; first compound 0.3162 µM) was 0.818, the relative viability (ABC-1; first compound 1 µM) was 0.671 and the relative viability (COR-L 105; first compound 0.01 µM) was 0.368. It also gave a relative viability (COR-L 105; first compound 0.03162 µM) of 0.394, a relative viability (COR-L 105; first compound 0.1 µM) of 0.418 and a relative viability (COR-L 105; first compound 0.3162 µM) of 0.445. For the same compound, the relative viability (COR-L 105; first compound 1 µM) was 0.392, the relative viability (NCI-H3122; first compound 0.01 µM) was 0.618 and the relative viability (NCI-H3122; first compound 0.03162 µM) was 0.598. The relative viability (NCI-H3122; first compound 0.1 µM) was 0.674, the relative viability (NCI-H3122; first compound 0.3162 µM) was 0.64 and the relative viability (NCI-H3122; first compound 1 µM) was 0.592. The relative viability (NCI-H1666; first compound 0.01 µM) was 0.363, the relative viability (NCI-H1666; first compound 0.03162 µM) was 0.405 and the relative viability (NCI-H1666; first compound 0.1 µM) was 0.484. It also gave a relative viability (NCI-H1666; first compound 0.3162 µM) of 0.595, a relative viability (NCI-H1666; first compound 1 µM) of 0.367 and a relative viability (NCI-H727; first compound 0.01 µM) of 0.413. For the same compound, the relative viability (NCI-H727; first compound 0.03162 µM) was 0.417, the relative viability (NCI-H727; first compound 0.1 µM) was 0.362 and the relative viability (NCI-H727; first compound 0.3162 µM) was 0.627. For the same compound, the relative viability (NCI-H727; first compound 1 µM) was 0.41, the relative viability (NCI-H2170; first compound 0.01 µM) was 0.326 and the relative viability (NCI-H2170; first compound 0.03162 µM) was 0.27. The relative viability (NCI-H2170; first compound 0.1 µM) was 0.299, the relative viability (NCI-H2170; first compound 0.3162 µM) was 0.317 and the relative viability (NCI-H2170; first compound 1 µM) was 0.322. For the same compound, the relative viability (PC-14; first compound 0.01 µM) was 0.702, the relative viability (PC-14; first compound 0.03162 µM) was 0.624 and the relative viability (PC-14; first compound 0.1 µM) was 0.658. For the same compound, the relative viability (PC-14; first compound 0.3162 µM) was 0.807, the relative viability (PC-14; first compound 1 µM) was 0.509 and the relative viability (NCI-H460; first compound 0.01 µM) was 0.311. The relative viability (NCI-H460; first compound 0.03162 µM) was 0.258, the relative viability (NCI-H460; first compound 0.1 µM) was 0.417 and the relative viability (NCI-H460; first compound 0.3162 µM) was 0.382. The relative viability (NCI-H460; first compound 1 µM) was 0.395, the relative viability (LK-2; first compound 0.01 µM) was 0.624 and the relative viability (LK-2; first compound 0.03162 µM) was 0.438. It also gave a relative viability (LK-2; first compound 0.1 µM) of 0.425, a relative viability (LK-2; first compound 0.3162 µM) of 0.388 and a relative viability (LK-2; first compound 1 µM) of 0.263. The relative viability (LOU-NH91; first compound 0.01 µM) was 0.476, the relative viability (LOU-NH91; first compound 0.03162 µM) was 0.494 and the relative viability (LOU-NH91; first compound 0.1 µM) was 0.611. For the same compound, the relative viability (LOU-NH91; first compound 0.3162 µM) was 0.524, the relative viability (LOU-NH91; first compound 1 µM) was 0.51 and the relative viability (NCI-H1650; first compound 0.01 µM) was 0.542. It also gave a relative viability (NCI-H1650; first compound 0.03162 µM) of 0.464, a relative viability (NCI-H1650; first compound 0.1 µM) of 0.423 and a relative viability (NCI-H1650; first compound 0.3162 µM) of 0.477. The relative viability (NCI-H1650; first compound 1 µM) was 0.22, the relative viability (NCI-H1437; first compound 0.01 µM) was 0.544 and the relative viability (NCI-H1437; first compound 0.03162 µM) was 0.482. The relative viability (NCI-H1437; first compound 0.1 µM) was 0.424, the relative viability (NCI-H1437; first compound 0.3162 µM) was 0.395 and the relative viability (NCI-H1437; first compound 1 µM) was 0.392. It also gave a relative viability (CAL-12T; first compound 0.03162 µM) of 0.322, a relative viability (CAL-12T; first compound 0.1 µM) of 0.386 and a relative viability (CAL-12T; first compound 0.3162 µM) of 0.6. It also gave a relative viability (CAL-12T; first compound 1 µM) of 0.397, a relative viability (201T; first compound 0.01 µM) of 0.741 and a relative viability (201T; first compound 0.03162 µM) of 0.663. For the same compound, the relative viability (201T; first compound 0.1 µM) was 0.775, the relative viability (201T; first compound 0.3162 µM) was 0.677 and the relative viability (201T; first compound 1 µM) was 0.573. The relative viability (NCI-H661; first compound 0.01 µM) was 0.403, the relative viability (NCI-H661; first compound 0.03162 µM) was 0.313 and the relative viability (NCI-H661; first compound 0.1 µM) was 0.434. It also gave a relative viability (NCI-H661; first compound 0.3162 µM) of 0.445, a relative viability (NCI-H661; first compound 1 µM) of 0.344 and a relative viability (BEN; first compound 0.01 µM) of 0.587. The relative viability (BEN; first compound 0.03162 µM) was 0.516, the relative viability (BEN; first compound 0.1 µM) was 0.525 and the relative viability (BEN; first compound 0.3162 µM) was 0.59. For the same compound, the relative viability (BEN; first compound 1 µM) was 0.485, the relative viability (EKVX; first compound 0.01 µM) was 0.437 and the relative viability (EKVX; first compound 0.03162 µM) was 0.455. The relative viability (EKVX; first compound 0.1 µM) was 0.42, the relative viability (EKVX; first compound 0.3162 µM) was 0.407 and the relative viability (EKVX; first compound 1 µM) was 0.465. It also gave a relative viability (HARA; first compound 0.01 µM) of 0.421, a relative viability (HARA; first compound 0.03162 µM) of 0.356 and a relative viability (HARA; first compound 0.1 µM) of 0.307. The relative viability (HARA; first compound 0.3162 µM) was 0.485, the relative viability (HARA; first compound 1 µM) was 0.176 and the relative viability (NCI-H2009; first compound 0.01 µM) was 0.727. It also gave a relative viability (NCI-H2009; first compound 0.03162 µM) of 0.79, a relative viability (NCI-H2009; first compound 0.1 µM) of 0.824 and a relative viability (NCI-H2009; first compound 0.3162 µM) of 0.965. For the same compound, the relative viability (NCI-H2009; first compound 1 µM) was 0.815, the relative viability (NCI-H441; first compound 0.01 µM) was 0.48 and the relative viability (NCI-H441; first compound 0.03162 µM) was 0.554. The relative viability (NCI-H441; first compound 0.1 µM) was 0.412, the relative viability (NCI-H441; first compound 0.3162 µM) was 0.53 and the relative viability (NCI-H441; first compound 1 µM) was 0.407. For the same compound, the relative viability (HCC-366; first compound 0.01 µM) was 0.102, the relative viability (HCC-366; first compound 0.03162 µM) was 0.177 and the relative viability (HCC-366; first compound 0.1 µM) was 0.207. It also gave a relative viability (HCC-366; first compound 0.3162 µM) of 0.164 and a relative viability (HCC-366; first compound 1 µM) of 0.176.

From the supplement of paper PMC10307832
